The subject of assay [1] is cumulus-oocyte complexes. The assay is described as follows: Cumulus expansion test in vitro. It counts as cell-based, mice (strain: B6D2F1). The note with it: for inhibition at 1 µM / inhibition at 0.5 µM: Mus musculus, 0.3 μM PGE2 for stimulation; for inhibition at 1 µM: read-out: % reduction at 1 μM (reduction in the cumulus expansion); for inhibition at 0.5 µM: read-out: % reduction at 0.5 μm (reduction in the cumulus expansion). The procedure: 4.2. Cumulus Expansions Test In Vitro In immature female mice (strain: B6D2F1 from Charles River), at an age of 14-18 days, the folliculogenesis was induced by a single administration (intraperitoneal) of 10 IU of PMSG (pregnant mare serum gonadotropin; Sigma G-4877, Lot 68H0909). 47-50 hours after the injection, the ovaries were removed and the cumulus-oocyte complexes removed. At this stage, the cumulus complex is not yet expanded. The cumulus-oocyte complexes were now incubated for 20-24 hours with prostaglandin E2 (PGE) (0.3 μM), vehicle control (ethanol) or test substances. Medium: alpha-MEM medium with 0.1 mM IBMX, pyruvate (0.23 mM), glutamine (2 mM), pen/strep 100 IU/ml pen. and 100 μg/ml strep.), HSA (8 mg/ml) and foetal bovine serum (FBS, 10%). The cumulus expansion was then established through the subdivision into four stages (after Vanderhyden et al. Dev Biol. 1990 August; 140(2):307-317).

The target of assay [2] is EP4 subtype of the human PGE2 receptor (Homo sapiens, UniProt P35408). The assay is described as follows: cAMP antagonism test on the human EP4 receptor (HTRF cAMP detection). It counts as cell-based. Particulars: selectivity towards hEP4, IC50 measured by cAMP antagonism test. In outline:
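Competitive HTRF cAMP read-out (cAMP-d2 vs Eu-cryptate anti-cAMP antibody, 665/620 nm ratio) on lysed human EP4 cells. Compound (0.8 nM–16.5 μM) applied 20 min at RT before 60 min PGE2 challenge (3× solution 0.3 nM, IBMX present); 20 min lysis precedes reading.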
In general terms: In TR-FRET formats the signal depends on donor and acceptor labels being close together.

For assay [3], the target named is T1, human PGD receptor (Homo sapiens, UniProt Q13258).
T1 sequence (Q13258 1-359): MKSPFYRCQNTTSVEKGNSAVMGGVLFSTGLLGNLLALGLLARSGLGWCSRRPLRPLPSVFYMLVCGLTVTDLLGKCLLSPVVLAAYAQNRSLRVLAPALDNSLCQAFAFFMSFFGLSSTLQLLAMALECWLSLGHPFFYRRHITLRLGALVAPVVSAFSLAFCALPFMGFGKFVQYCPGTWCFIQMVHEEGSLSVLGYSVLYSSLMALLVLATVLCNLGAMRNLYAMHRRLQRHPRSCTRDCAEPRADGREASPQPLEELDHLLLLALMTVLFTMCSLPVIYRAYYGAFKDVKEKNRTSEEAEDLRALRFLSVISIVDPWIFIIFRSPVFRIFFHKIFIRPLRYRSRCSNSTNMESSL
The assay can be described thus: cAMP antagonism test on the human prostaglandin D receptor (HTRF cAMP detection). The note with it: selectivity towards hDP, IC50 measured by cAMP antagonism test. It counts as cell-based. In outline: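 HTRF competition read-out (665/620 nm ratio ×10000), where higher FRET means less cAMP, i.e. antagonism. Compounds (0.8 nM–16.5 μM) were preincubated 20 min at RT with cells and cAMP-d2, PGD2 (3× solution, 6 nM) in IBMX-containing PBS added for 30 min at RT, then cells lysed 20 min.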

Four molecules from patent publication US9062041B2 (Bayer Intellectual Property GmbH, priority 2011, dated 2015) can be followed below.

Each structure is given as a SMILES string.

Sequence of EP4 subtype of the human PGE2 receptor (P35408 whole entry): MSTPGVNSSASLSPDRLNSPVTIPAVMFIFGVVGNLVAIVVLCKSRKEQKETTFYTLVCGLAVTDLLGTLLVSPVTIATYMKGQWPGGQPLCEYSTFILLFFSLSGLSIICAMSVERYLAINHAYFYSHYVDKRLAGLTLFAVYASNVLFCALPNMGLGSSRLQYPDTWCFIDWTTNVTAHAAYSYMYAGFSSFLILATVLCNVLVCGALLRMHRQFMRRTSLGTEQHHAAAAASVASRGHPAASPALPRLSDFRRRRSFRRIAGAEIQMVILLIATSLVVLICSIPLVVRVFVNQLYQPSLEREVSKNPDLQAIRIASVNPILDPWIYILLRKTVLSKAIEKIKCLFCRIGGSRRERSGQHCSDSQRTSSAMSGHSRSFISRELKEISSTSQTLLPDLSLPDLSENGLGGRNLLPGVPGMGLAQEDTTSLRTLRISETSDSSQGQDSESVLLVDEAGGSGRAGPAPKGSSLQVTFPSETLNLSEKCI

As for `COCCNC(=O)c1ccc2nn(CC3CN(C(=O)c4ccc(Cl)cc4)C3)cc2c1C` [Example 117, 2-{[1-(4-chlorobenzoyl)azetidin-3-yl]methyl}-N-(2-methoxyethyl)-4-methyl-2H-indazol-5-carboxamide], in assay [1], the inhibition at 1 µM turned out to be 54% and the inhibition at 0.5 µM amounted to 30%. The “Selectivity hEP2/hEP4” value in assay [2] was “xxx (xxx > 100)”. Further, the “Selectivity hEP2/hDP” value in assay [3] is “xxx (xxx > 100)”.

Consider `COCCNC(=O)c1ccc2nn(CC3CCN(C(=O)c4ccc(Oc5ccc(C(F)(F)F)cc5)cc4)CC3)cc2c1C` [Example 17, N-(2-methoxyethyl)-4-methyl-2-[(1-{4-[4-(trifluoromethyl)-phenoxy]benzoyl}-piperidin-4-yl)-methyl]-2H-indazol-5-carboxamide], for which the “suppression of the cumulus expansion” value in assay [1] (0.5 μM, PGE2 0.3 μM) was “ca. 70%”. Also, in assay [1], the inhibition at 1 µM was 76% and the inhibition at 0.5 µM was 71%. In assay [2], the “Selectivity hEP2/hEP4” value is given as “xxx (xxx > 100)”. The “Selectivity hEP2/hDP” value in assay [3] is “xxx (xxx > 100)”.

As for `Cc1c(C(=O)NCC(F)(F)F)ccc2nn(CC3CCN(C(=O)c4ccc(Oc5ccc(F)cc5)cc4)CC3)cc12` [Example 283, 2-({1-[4-(4-fluorophenoxy)benzoyl]piperidin-4-yl}methyl)-4-methyl-N-(2,2,2-trifluoroethyl)-2H-indazol-5-carboxamide], in assay [1], the inhibition at 1 µM is 26% and the inhibition at 0.5 µM was determined as 25%. For the same molecule, in assay [2], the “Selectivity hEP2/hEP4” value is “xxx (xxx > 100)”. In addition, the “Selectivity hEP2/hDP” value in assay [3] is “xxx (xxx > 100)”.

Regarding `COCCNC(=O)c1ccc2nn(CC3CCN(C(=O)c4ccc(-c5ccc(F)cc5)cc4F)CC3)cc2c1C` [Example 42, 2-({1-[(3,4′-difluoro-biphenyl-4-yl)-carbonyl]piperidin-4-yl}methyl)-N-(2-methoxyethyl)-4-methyl-2H-indazol-5-carboxamide], in assay [1], the inhibition at 1 µM was 79% and the inhibition at 0.5 µM was 48%. In addition, the “Selectivity hEP2/hEP4” value in assay [2] was “xxx (xxx > 100)”. In assay [3], the “Selectivity hEP2/hDP” value is listed as “xxx (xxx > 100)”.
